Data as given in PMC11561238, “Discovery and binding mode of small molecule inhibitors of the apo form of human TDO2” (Scientific Reports, 2024).

Columns and labels:
[1] = system: SW48 cells; assay: SW48 cell viability assay (CellTiter-Glo); assay type: cell-based; details: Homo sapiens
Procedure: The inhibitor compound 1 (Cpd-1) (IUPAC name ethyl 9-(3-(2-propylphenyl)-1-(1-phenylethyl)ureido)-2-methoxy-4-oxo-6,7,8,9-tetrahydro-4H-pyrido[1,2-a]pyrimidine-3-carboxylate) was identified as a hit in a high throughput screening campaign of a diverse set of 244,625 compounds in a human TDO2 cellular assay utilizing SW48 cells, which express a high level of endogenous TDO2. TDO2 activity was assessed by measuring the accumulation of the TDO2 product NFK and downstream product KYN in the supernatant. The potent inhibitor compound 2 (Cpd-2) (IUPAC name ethyl 9-(3-(2-isopropylphenyl)-1-((S)-1-phenylethyl)ureido)-2-methoxy-4-oxo-6,7,8,9-tetrahydro-4H-pyrido[1,2-a]pyrimidine-3-carboxylate) was identified during initial structure activity relationship studies of Cpd-1 analogs.
As inhibition of NFK and KYN production can simply be an effect of cytotoxicity, a viability assay (CellTiter-Glo 2.0 Luminescent Cell Viability Assay, Promega Catalog # G9243) was performed in parallel. CellTiter-Glo reagent was added (25 µl/well) to SW48 cell plates, incubated for 15 min at room temperature in the dark and luminescence was measured with the EnVision Multilabel Reader from Perkin Elmer according to the manufacturer’s instructions. […] For each compound concentration the percentage of activity compared to 0% and 100% effect was calculated as average ± STDEV (each concentration measured in duplicate). […]

[2] = target: T1, IDO1 (Homo sapiens, UniProt P14902); assay: IDO1 cellular activity assay (IFNγ-stimulated SKOV3 cells); assay type: cell-based; details: IFNγ 50 ng/ml, 24 h
T1 construct: SKOV3 cells treated with IFNγ to induce IDO expression; endogenous in cells; host or cells: SKOV3 cells (NCI No. 0503405), IFNγ-stimulated
Procedure: A cellular assay similar to the TDO2 assay was used to measure IDO1 inhibition in SKOV3 cells.
SKOV3 cells (source: National Cancer Institute (NCI), No. 0503405) which upregulate IDO1 after stimulation with IFNγ were used to measure compounds for IDO1 inhibitory activity. SKOV3 cells were routinely maintained in RPMI 90% (v/v), FCS 10% (v/v), Penicilin/streptomycin 1% (v/v). SKOV3 cells were seeded in 384 well plates at a density of 8000 cells in 45 µl per well or 4000 cells in 45 µl per well, respectively. Plates were incubated at 37 °C / 5% CO2 for 24 h. On the next day, 10 µl compound in serial dilutions (tested concentration range 10 µM-0.5 nM) and 200 µM L-tryptophan were added as well as IFNγ at a final concentration of 50 ng/ml. After 24 h of incubation at 37 °C / 5% CO2, 3 µl of the supernatant per well was transferred to 25 µl H2O per well in a 384 deep well plate and 25 µl of the supernatant per well was transferred to waste. The SKOV3 cell plates with 25 µl supernatant per well remaining were used to measure viability (see below). […] NFK and kynurenine (KYN) were quantified by LCMS, normalized to the internal standard L-tryptophan-(indole-d5) and the sum was calculated. […] For each compound concentration the percentage of activity compared to 0% and 100% effect was calculated as average ± STDEV (each concentration measured in duplicate). […]

[3] = target: T2, recombinant human TDO2 (holo-TDO2) (Homo sapiens, UniProt P48775); assay: Holo-TDO2 enzymatic assay; assay type: biochemical
T2 construct: a construct encoding amino acids 19–406 of human TDO2 with an N-terminal six histidine tag; PreScission protease cleavage site (linker) (N); made in house; host or cells: E. coli BL21(DE3)
Procedure: The IC50 curve is shown in supplementary Fig. S1 online. We speculate that the observed IC50 shift may be due to the kinetics of heme dissociation from holo-TDO2 and/or the absence of alternative heme binding proteins in the assay system. The structurally similar Cpd-2 was not tested in the enzymatic assay.
For the enzymatic assay, recombinant human TDO2 comprising amino acids […] with a N-terminal hexahistidine tag, expressed in Escherichia coli and purified to homogeneity, was incubated in assay buffer consisting of 75 mM phosphate buffer at pH 7.0 supplemented with 100 µM ascorbic acid, 50 U/ml catalase, 0.01% bovine serum albumin (BSA), and 0.01% Tween 20 (protocol modified from[45]).

T2 sequence (P48775 19-406): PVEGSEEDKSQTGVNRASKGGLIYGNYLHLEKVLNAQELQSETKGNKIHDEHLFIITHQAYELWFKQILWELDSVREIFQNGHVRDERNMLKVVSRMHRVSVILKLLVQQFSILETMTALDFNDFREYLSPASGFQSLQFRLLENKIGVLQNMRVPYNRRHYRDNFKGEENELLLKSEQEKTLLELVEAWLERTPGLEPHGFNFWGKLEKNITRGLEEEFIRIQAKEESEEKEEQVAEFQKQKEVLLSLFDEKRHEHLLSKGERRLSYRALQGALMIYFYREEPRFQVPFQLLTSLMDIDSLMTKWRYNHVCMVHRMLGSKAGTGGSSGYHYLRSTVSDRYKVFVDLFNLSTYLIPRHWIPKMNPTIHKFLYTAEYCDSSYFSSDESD
T1 sequence (P14902 whole entry): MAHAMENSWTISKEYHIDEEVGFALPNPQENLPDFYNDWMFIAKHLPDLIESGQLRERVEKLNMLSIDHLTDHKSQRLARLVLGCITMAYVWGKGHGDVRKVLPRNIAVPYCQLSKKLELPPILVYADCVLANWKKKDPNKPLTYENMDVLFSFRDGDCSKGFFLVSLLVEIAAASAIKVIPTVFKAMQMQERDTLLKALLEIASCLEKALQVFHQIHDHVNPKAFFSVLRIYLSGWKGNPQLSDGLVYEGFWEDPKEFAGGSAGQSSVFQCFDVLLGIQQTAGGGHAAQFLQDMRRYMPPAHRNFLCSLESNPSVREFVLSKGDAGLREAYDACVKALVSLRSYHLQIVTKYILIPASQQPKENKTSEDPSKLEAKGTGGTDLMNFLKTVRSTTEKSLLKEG

IC50 [1]	IC50 [2]	IC50 ([3]; 30 min assay at room temperature after 30 min pre-incubation with holo-TDO2, read-out: enzymatic assay IC50 (holo form of TDO2))	fold less potent in enzymatic assay than in the cellular assay ([3]; enzymatic IC50 vs TDO2 cellular IC50)	Structure (SMILES)
> 10 µM	> 10 µM	–	–	CCOC(=O)c1c(OC)nc2n(c1=O)CCCC2N(C(=O)Nc1ccccc1C(C)C)[C@@H](C)c1ccccc1 (mixture of isomers) [Cpd-2, ethyl 9-(3-(2-isopropylphenyl)-1-((S)-1-phenylethyl)ureido)-2-methoxy-4-oxo-6,7,8,9-tetrahydro-4H-pyrido[1,2-a]pyrimidine-3-carboxylate]
> 10 µM	5.7 µM	17.4 µM	53 fold	CCCc1ccccc1NC(=O)N(C(C)c1ccccc1)C1CCCn2c1nc(OC)c(C(=O)OCC)c2=O (stereo not drawn) [Cpd-1, ethyl 9-(3-(2-propylphenyl)-1-(1-phenylethyl)ureido)-2-methoxy-4-oxo-6,7,8,9-tetrahydro-4H-pyrido[1,2-a]pyrimidine-3-carboxylate]
